Measurements published in patent publication US20210228523A1, “MODULATORS OF SESTRIN-GATOR2 INTERACTION AND USES THEREOF” (Navitor Pharmaceuticals, Inc., priority 2017, published 2021).
“And” between values parts separate entries of the source, which are not always exact repeats. Equal entries are not always repeated.

Test system: Male Sprague Dawley rats
Assay: Novelty Suppressed Feeding Test (NSFT) with home cage feeding control
Assay type: in vivo, rat
Description: Behavioral Analysis Using the Novelty Suppressed Feeding Test (NSFT): The NSFT was conducted as previously described (Warner-Schmidt, J. L. & Duman, R. S. PNAS 104(11): 4647-52 (2007)). Rats were fasted in their home cages for 20 hr and then placed in a Plexiglas open field (76.5 cm×76.5 cm×40 cm) with a small amount of food in the center. Animals were allowed to explore the open field for 8 min and the latency to feed (s) was recorded.
Chronic Unpredictable Stress (CUS) Conditions: Rats were exposed to a variable sequence of 12 unpredictable stressors, preventing habituation as described (Li, N. et al., Biol Psychiatry 69(8): 754-61 (2011)). The following twelve stressors were applied (2 per day, for 25 days): cage rotation, light on, light off, cold stress, isolation, swim stress, food and water deprivation, wet bedding, stroboscope, cage tilt, odor exposure and group housing. The animals in non-stressed (NS) groups were housed normally without the application of external stressors. Both NS and CUS rats were handled and weighed weekly.
Study Design. Thirty-two (32) male Sprague Dawley Male rats weighing between 175 and 200 g were randomized into 4 study groups (n=8/treatment group), following a 5-day acclimation period. On study day 0, rats received a single dose of either saline (Sal) or ketamine (Ket) in Groups 1 and 2, respectively, by intraperitoneal injection (i.p.). The rats in Group 3 and 4 received a single dose of the NV-5138 vehicle (Veh, 0.5% Methylcellulose/0.1% Tween-80) or NV-5138 (160 mg/kg), respectively, by oral gavage. All rats were subjected to the FUST on day 1, 24 hrs after dosing. On day 2, 48 hrs after dosing, the LMA of all rats was measured in an open field. Rats were then fasted for 20 hrs and subjected to the NSFT, 72 hrs post-dose.
Study Design: Fifty-six (56) male rats weighing between 175 and 200 g were randomized into 4 study groups (n=14/group), following a 5-day acclimation period. On study day minus 20, two groups of rats were subjected to CUS for 25 days and two groups of rats were housed normally serving as the NS group. On the day 21 of the CUS protocol, rats received a single dose of either Veh or NV-5138 (160 mg/kg) by oral gavage (day 0). The SPT and NSFT were performed 24 and 48 hrs post-administration (days 1 and 2), respectively. Upon completion of the behavioral tests, after 25 days of the CUS protocol a second dose of NV-5138 or Veh was administered on day 5 and rats were sacrificed 24 hrs later by conscious decapitation. Crude synaptosomes were prepared from the PFC and the synaptic proteins, GluR1 and PSD95 were quantitated by WB.
Study Design. Twenty (20) male rats weighing between 175 and 200 g were randomized into 3 study groups (n=6-7/group), following a 5-day acclimation period. All rats were surgically implanted with bilateral IT cannulas in the PFC 2 weeks prior to dosing. […] Thirty minutes following the intrathecal infusions, either NV-5138 vehicle (Veh-NV, 0.5% methylcellulose/0.1% Tween-80) or NV-5138 (160 mg/kg) was administered by oral gavage. Each treatment group was assessed at the designated time following oral dosing in FST 24 hrs (day 1) LMA 48 hrs (day 2) and the NSFT 72 hrs (day 3 following a 20 hr period of fasting). LMA was measured to rule out overall changes in generally locomotor activity. The study design is presented in Table 11 with timeline of surgical procedures, test article administration and behavioral tests is provided in FIG. 20
Study Design. Forty-eight (48) male rats weighing between 175 and 200 g were randomized into 6 study groups (n=8/group), following a 5-day acclimation period. A single dose of all test articles was administered on day 0 and the behavioral tests were performed 3, 7 and 10 days later. Groups 1 and 2 were dosed on day 0 with NV-5138 (160 mg/kg by oral gavage) and Ket (10 mg/kg by i.p. injection), respectively and subjected to a FST on day 3. […]

CC(C)(C[C@H](N)C(=O)O)C(F)F [NV-5138]
decrease in the latency to feed (NSFT) vs Veh (Example A, NV-5138 160 mg/kg oral single dose, 72 hrs post-dose, p<0.01): 36%
NSFT latency to feed (Example E, CUS rats, NV-5138 160 mg/kg oral, 48 hrs after treatment, p<0.0001 vs CUS Veh): 520.1 ± 40.35 s
NSFT latency to feed (Example E, non-stressed (NS) rats, NV-5138 160 mg/kg oral, 48 hrs after treatment, p<0.01 vs Veh): 430.6 ± 25.3 s
NSFT latency to feed (Example F, Veh-R IT infusion then NV-5138 160 mg/kg oral, 72 hrs): 510 ± 50 s
decrease in NSFT latency to feed vs Veh-R/Veh-NV (Example F, Veh-R IT infusion then NV-5138 160 mg/kg oral, 72 hrs, p<0.05, 160 mg/kg): 46% and 32%
NSFT latency to feed, R/NV-5138 vs Veh-R/Veh-NV (Example F, rapamycin (R, 0.01 nmol) IT infusion into PFC 30 min before NV-5138 160 mg/kg oral, 72 hrs): lack of significant effect on latency to feed
NSFT vs Veh (Example G, NV-5138 160 mg/kg oral single dose, 10 days post-dose): No significant difference
NSFT (Example I, NV-5138 80 mg/kg oral daily for 7 days, day 9, 72 hrs post-last dose): Significant effects

CNC1(c2ccccc2Cl)CCCCC1=O (stereo not shown) [Ket, ketamine, reference compound]
decrease in the latency to feed (NSFT) vs Sal (Example A, Ket 10 mg/kg i.p. single dose, 72 hrs post-dose, p<0.01): 31%
NSFT vs Sal (Example G, Ket 10 mg/kg i.p. single dose, 10 days post-dose): No significant difference
